Assay results reported in article PMC11864979, “First-in-class ultralong-target-residence-time p38α inhibitors as a mitosis-targeted therapy for colorectal cancer” (Nature Cancer, 2025).
Like-named read-outs stand apart in the source and are kept apart here.

Key:
Experiment in all cases: selectivity profiling in a panel of 340 wild-type kinases (Reaction Biology Europe)
Format in all cases: binding
340 wild-type kinases [1] = target: T1, 340 wild-type kinases (Homo sapiens, UniProt Q07002)
T1 construct: purchased Reaction Biology Europe

340 wild-type kinases [2] = target: T2, 340 wild-type kinases (Homo sapiens, UniProt O15530)
T2 construct: purchased Reaction Biology Europe
T2 sequence (O15530 1-556): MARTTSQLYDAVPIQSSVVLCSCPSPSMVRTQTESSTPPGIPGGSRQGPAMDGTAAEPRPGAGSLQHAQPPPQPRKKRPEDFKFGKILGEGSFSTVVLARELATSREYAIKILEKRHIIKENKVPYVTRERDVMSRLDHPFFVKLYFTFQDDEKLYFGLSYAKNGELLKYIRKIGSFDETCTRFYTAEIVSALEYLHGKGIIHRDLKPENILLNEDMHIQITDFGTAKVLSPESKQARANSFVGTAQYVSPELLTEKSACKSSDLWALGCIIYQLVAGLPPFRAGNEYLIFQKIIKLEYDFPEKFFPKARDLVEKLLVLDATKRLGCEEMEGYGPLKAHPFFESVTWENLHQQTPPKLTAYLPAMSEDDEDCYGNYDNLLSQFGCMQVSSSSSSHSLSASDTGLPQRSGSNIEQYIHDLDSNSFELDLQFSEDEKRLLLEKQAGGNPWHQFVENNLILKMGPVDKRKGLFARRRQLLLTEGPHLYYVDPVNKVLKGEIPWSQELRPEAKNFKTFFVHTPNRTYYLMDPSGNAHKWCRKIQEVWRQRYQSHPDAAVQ

340 wild-type kinases [3] = target: T3, 340 wild-type kinases (Homo sapiens, UniProt O00311)
T3 construct: purchased Reaction Biology Europe

340 wild-type kinases [4] = target: T4, 340 wild-type kinases (Homo sapiens, UniProt Q13464)
T4 construct: purchased Reaction Biology Europe

340 wild-type kinases [5] = target: T5, 340 wild-type kinases (Homo sapiens, UniProt P36897)
T5 construct: purchased Reaction Biology Europe
T5 sequence (P36897 34-503): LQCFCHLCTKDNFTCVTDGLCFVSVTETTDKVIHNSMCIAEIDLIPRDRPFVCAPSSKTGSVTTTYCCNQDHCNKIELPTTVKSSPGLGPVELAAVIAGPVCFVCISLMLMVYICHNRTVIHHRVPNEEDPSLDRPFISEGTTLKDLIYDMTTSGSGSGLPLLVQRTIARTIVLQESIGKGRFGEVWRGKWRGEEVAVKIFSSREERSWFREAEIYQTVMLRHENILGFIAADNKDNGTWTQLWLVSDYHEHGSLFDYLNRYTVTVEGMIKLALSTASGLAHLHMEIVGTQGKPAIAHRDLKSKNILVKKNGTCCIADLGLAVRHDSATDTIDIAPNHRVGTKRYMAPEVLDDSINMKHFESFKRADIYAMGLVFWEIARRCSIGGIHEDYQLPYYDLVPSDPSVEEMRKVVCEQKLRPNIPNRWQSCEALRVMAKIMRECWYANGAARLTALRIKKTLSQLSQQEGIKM

340 wild-type kinases [6] = target: T6, 340 wild-type kinases (Homo sapiens, UniProt P49137)
T6 construct: purchased Reaction Biology Europe

340 wild-type kinases [7] = target: T7, 340 wild-type kinases (Homo sapiens, UniProt P49761)
T7 construct: purchased Reaction Biology Europe

340 wild-type kinases [8] = target: T8, 340 wild-type kinases (Homo sapiens, UniProt Q12866)
T8 construct: purchased Reaction Biology Europe
T8 sequence (Q12866 21-999): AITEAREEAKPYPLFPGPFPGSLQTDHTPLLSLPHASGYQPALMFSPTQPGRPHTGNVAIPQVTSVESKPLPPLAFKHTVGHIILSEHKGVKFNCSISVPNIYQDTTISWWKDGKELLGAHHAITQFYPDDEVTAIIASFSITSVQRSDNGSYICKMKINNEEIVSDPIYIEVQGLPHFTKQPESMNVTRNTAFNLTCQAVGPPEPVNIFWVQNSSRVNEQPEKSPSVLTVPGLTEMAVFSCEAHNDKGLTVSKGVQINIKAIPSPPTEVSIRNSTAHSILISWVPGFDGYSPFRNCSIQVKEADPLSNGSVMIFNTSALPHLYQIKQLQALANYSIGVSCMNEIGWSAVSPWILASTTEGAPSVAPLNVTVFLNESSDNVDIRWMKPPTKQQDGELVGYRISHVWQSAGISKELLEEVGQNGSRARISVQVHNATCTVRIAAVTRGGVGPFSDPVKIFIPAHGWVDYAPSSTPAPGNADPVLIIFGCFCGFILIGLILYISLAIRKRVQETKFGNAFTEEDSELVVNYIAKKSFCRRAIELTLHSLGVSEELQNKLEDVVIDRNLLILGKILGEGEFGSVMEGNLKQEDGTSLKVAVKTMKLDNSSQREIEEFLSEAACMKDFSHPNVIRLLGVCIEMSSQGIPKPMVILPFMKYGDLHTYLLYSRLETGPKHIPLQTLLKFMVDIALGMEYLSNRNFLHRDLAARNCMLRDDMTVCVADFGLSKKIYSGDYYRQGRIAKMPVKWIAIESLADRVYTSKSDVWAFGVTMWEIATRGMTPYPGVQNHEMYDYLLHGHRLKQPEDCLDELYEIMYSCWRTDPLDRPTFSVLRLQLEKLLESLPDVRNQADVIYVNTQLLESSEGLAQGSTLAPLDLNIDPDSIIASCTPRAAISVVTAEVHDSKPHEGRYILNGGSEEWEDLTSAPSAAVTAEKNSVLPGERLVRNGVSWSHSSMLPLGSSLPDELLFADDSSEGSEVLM

T4 sequence (Q13464 whole entry): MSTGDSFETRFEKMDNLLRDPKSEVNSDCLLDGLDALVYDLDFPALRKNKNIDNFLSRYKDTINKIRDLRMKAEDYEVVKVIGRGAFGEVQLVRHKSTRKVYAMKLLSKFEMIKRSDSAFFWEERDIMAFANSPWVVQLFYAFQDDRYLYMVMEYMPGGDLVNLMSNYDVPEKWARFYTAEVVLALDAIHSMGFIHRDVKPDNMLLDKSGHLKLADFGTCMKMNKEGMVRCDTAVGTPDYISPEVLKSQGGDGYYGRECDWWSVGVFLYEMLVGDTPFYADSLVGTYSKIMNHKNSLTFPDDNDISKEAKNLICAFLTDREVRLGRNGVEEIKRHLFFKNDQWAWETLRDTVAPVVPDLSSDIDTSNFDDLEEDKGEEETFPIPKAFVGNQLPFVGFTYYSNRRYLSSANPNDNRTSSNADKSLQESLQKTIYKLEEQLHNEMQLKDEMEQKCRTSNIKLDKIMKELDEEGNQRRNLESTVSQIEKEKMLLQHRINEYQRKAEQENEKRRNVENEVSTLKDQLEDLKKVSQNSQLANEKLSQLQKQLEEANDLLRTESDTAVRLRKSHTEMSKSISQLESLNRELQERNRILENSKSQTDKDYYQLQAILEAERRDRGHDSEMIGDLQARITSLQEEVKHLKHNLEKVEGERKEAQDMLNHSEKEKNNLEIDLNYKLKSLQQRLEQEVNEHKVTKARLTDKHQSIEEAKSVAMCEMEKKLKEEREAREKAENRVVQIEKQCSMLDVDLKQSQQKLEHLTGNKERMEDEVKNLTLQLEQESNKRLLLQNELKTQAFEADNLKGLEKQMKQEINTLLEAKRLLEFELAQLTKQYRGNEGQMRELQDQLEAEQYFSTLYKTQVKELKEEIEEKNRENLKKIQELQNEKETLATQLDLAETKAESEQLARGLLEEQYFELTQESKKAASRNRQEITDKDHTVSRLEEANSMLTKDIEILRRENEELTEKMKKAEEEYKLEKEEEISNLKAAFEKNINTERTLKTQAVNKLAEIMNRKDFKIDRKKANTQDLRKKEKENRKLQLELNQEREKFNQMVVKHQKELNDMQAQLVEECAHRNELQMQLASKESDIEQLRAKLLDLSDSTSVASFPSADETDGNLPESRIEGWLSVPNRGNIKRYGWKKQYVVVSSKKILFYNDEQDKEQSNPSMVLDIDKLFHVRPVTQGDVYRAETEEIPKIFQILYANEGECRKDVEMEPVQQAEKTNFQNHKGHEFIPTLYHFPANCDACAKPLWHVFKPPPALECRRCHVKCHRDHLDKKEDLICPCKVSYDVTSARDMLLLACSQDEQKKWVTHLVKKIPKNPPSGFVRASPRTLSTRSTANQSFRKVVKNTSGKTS
T6 sequence (P49137 whole entry): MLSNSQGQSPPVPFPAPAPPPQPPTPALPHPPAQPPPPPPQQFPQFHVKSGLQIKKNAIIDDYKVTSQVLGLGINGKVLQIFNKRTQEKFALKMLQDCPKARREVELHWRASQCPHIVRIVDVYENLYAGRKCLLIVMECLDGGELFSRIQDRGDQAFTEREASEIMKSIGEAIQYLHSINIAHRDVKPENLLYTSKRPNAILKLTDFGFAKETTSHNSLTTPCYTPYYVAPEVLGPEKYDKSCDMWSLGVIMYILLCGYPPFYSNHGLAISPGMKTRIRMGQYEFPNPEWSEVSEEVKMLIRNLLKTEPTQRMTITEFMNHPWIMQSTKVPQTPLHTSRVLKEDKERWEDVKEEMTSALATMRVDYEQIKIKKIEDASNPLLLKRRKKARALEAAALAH
T7 sequence (P49761 whole entry): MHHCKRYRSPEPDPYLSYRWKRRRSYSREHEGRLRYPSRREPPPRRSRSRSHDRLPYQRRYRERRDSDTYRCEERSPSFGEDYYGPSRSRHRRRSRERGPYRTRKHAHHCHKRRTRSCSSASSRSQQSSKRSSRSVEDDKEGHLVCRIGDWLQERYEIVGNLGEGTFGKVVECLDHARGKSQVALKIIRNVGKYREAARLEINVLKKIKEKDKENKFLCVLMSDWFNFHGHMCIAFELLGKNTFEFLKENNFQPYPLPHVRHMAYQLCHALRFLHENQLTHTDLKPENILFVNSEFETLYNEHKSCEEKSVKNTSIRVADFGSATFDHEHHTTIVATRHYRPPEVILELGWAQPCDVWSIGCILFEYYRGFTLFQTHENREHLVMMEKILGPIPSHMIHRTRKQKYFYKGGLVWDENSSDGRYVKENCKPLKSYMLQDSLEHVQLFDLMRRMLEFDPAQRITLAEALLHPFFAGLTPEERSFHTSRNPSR
T1 sequence (Q07002 whole entry): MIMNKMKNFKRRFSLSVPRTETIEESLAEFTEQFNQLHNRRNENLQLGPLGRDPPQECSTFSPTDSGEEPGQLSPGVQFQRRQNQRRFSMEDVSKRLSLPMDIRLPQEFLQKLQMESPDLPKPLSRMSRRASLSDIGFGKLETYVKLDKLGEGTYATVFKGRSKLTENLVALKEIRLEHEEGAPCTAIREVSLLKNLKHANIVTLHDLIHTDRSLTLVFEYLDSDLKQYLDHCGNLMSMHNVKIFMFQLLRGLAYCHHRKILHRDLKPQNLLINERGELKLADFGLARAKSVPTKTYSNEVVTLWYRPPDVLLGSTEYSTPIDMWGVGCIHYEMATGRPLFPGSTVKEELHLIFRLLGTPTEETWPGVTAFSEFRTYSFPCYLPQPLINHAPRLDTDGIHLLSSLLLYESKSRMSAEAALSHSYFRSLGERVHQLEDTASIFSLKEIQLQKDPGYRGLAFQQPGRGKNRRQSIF
T3 sequence (O00311 whole entry): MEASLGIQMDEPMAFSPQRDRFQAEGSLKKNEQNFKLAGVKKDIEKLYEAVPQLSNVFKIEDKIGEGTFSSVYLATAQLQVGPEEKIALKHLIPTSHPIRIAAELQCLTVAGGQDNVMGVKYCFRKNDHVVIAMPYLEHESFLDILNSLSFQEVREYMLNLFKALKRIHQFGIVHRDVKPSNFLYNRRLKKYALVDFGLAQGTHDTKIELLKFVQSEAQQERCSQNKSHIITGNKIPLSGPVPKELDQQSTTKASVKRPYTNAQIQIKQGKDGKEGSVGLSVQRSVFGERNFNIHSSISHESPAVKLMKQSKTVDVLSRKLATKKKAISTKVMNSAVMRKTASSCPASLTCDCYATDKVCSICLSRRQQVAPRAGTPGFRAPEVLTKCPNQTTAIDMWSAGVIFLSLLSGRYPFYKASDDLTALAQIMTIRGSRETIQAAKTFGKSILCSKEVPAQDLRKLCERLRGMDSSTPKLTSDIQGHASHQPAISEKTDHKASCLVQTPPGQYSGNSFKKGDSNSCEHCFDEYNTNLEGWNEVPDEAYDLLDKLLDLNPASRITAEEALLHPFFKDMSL

## CNC(=O)c1ccc2c(c1)C(=O)c1ccc(Nc3ccc(F)c(NC(=O)C4CC4)c3)cc1CC2 [Compound 2015]
340 wild-type kinases [1]; 0.2 µM 2015, read-out: CDK18/CycY residual activity
  remaining activity at 0.2 µM: 102%
340 wild-type kinases [1]; 1 µM 2015, read-out: CDK18/CycY residual activity
  remaining activity at 1 µM: 92.8%
340 wild-type kinases [1]; CDK18/CycY, 0.2 µM, read-out: residual activity
  remaining activity at 0.2 µM: 102%
340 wild-type kinases [1]; CDK18/CycY, 1 µM, read-out: residual activity
  remaining activity at 1 µM: 92.8%
340 wild-type kinases [2]; 0.2 µM 2015, read-out: PDK1 residual activity
  remaining activity at 0.2 µM: 107%
340 wild-type kinases [2]; 1 µM 2015, read-out: PDK1 residual activity
  remaining activity at 1 µM: 93.7%
340 wild-type kinases [2]; PDK1, 0.2 µM, read-out: residual activity
  remaining activity at 0.2 µM: 107%
340 wild-type kinases [2]; PDK1, 1 µM, read-out: residual activity
  remaining activity at 1 µM: 93.7%
340 wild-type kinases [3]; 0.2 µM 2015, read-out: CDC7/DBF4 residual activity
  remaining activity at 0.2 µM: 108%
340 wild-type kinases [3]; 1 µM 2015, read-out: CDC7/DBF4 residual activity
  remaining activity at 1 µM: 95.1%
340 wild-type kinases [3]; CDC7/DBF4, 0.2 µM, read-out: residual activity
  remaining activity at 0.2 µM: 108%
340 wild-type kinases [3]; CDC7/DBF4, 1 µM, read-out: residual activity
  remaining activity at 1 µM: 95.1%
340 wild-type kinases [4]; 0.2 µM 2015, read-out: ROCK1 residual activity
  remaining activity at 0.2 µM: 95.1%
340 wild-type kinases [4]; 1 µM 2015, read-out: ROCK1 residual activity
  remaining activity at 1 µM: 87.2%
340 wild-type kinases [4]; ROCK1, 0.2 µM, read-out: residual activity
  remaining activity at 0.2 µM: 95.1%
340 wild-type kinases [4]; ROCK1, 1 µM, read-out: residual activity
  remaining activity at 1 µM: 87.2%
340 wild-type kinases [5]; 0.2 µM 2015, read-out: TGFBR1 residual activity
  remaining activity at 0.2 µM: 84.1%
340 wild-type kinases [5]; 1 µM 2015, read-out: TGFBR1 residual activity
  remaining activity at 1 µM: 90.9%
340 wild-type kinases [5]; TGFBR1, 0.2 µM, read-out: residual activity
  remaining activity at 0.2 µM: 84.1%
340 wild-type kinases [5]; TGFBR1, 1 µM, read-out: residual activity
  remaining activity at 1 µM: 90.9%
340 wild-type kinases [6]; 0.2 µM 2015, read-out: MAPKAPK2 residual activity
  remaining activity at 0.2 µM: 153%
340 wild-type kinases [6]; 1 µM 2015, read-out: MAPKAPK2 residual activity
  remaining activity at 1 µM: 118%
340 wild-type kinases [6]; MAPKAPK2, 0.2 µM, read-out: residual activity
  remaining activity at 0.2 µM: 153%
340 wild-type kinases [6]; MAPKAPK2, 1 µM, read-out: residual activity
  remaining activity at 1 µM: 118%
340 wild-type kinases [7]; 0.2 µM 2015, read-out: CLK3 residual activity
  remaining activity at 0.2 µM: 138%
340 wild-type kinases [7]; 1 µM 2015, read-out: CLK3 residual activity
  remaining activity at 1 µM: 133%
340 wild-type kinases [7]; CLK3, 0.2 µM, read-out: residual activity
  remaining activity at 0.2 µM: 138%
340 wild-type kinases [7]; CLK3, 1 µM, read-out: residual activity
  remaining activity at 1 µM: 133%
340 wild-type kinases [8]; 0.2 µM 2015, read-out: MERTK residual activity
  remaining activity at 0.2 µM: 88.3%
340 wild-type kinases [8]; 1 µM 2015, read-out: MERTK residual activity
  remaining activity at 1 µM: 97%
340 wild-type kinases [8]; MERTK, 0.2 µM, read-out: residual activity
  remaining activity at 0.2 µM: 88.3%
340 wild-type kinases [8]; MERTK, 1 µM, read-out: residual activity
  remaining activity at 1 µM: 97%
